Data taken from patent US10314851B2, “Metakaryocidal treatments” (Massachusetts Institute of Technology, priority 2014, dated 2019).
Where two headings read alike, the source gives them in different places.

Tested on: HT-29 cells
Text: Applicants next sought means to test nominated drugs (also referred to herein as candidate agents) using human cell cultures, particularly cell cultures derived from human tumors in which they discovered metakaryotic cells driving net growth and differentiation of such cultures by symmetric and asymmetric amitotic divisions.
The metakaryotic and pre-metakaryotic cells of cell lines derived from human tumors are capable of unlimited division when plated as single cells on plastic or glass surfaces. However, most cells in such cell lines are eukaryotic cells capable of limited cell growth which growth cannot give rise to immortal colonies or populations of cells. This quality permits the line to be used in quantitative assays of cell killing important for distinguishing among agents and regimens that kill metakaryotic cells in preference to eukaryotic cells and vice versa.
Single cells betray different fates. […] Applicants interpret these colonies and derived immortal populations to be the descendants of single metakaryotic or pre-metakaryotic stem cells.
Colonies of limited size between 1 and 2^11 cells are interpreted to be the products of growth of transition cell tiers three through eleven.
In this reproducible behavior the human tumor cell lines offered a means to test agents for metakaryocidal activity: metakaryocidal agents and regimens would reduce or eliminate the appearance of large colonies that could be propagated by serial trypsinized transfer. […] An example of this kind of assay is illustrated in FIGS. 1, 2 and 3.
In particular drugs evaluated were reported to overcome “multidrug resistance” giving special priority to drugs that suppressed “multidrug resistance” (MDR).
Shown in FIGS. 1-3 are images of quantitative trials of different regimens (initial concentration, duration of exposure) of metformin in clonal assays using HT-29 cells. […] FIG. 1 is a photograph illustrating the experimental design for testing metformin as a metakaryocide in vitro.
FIG. 2 depicts a table of the recorded colony counts on each of the flasks of the first image.
The Y-axis is the number of colonies on each test flask enumerated in FIG. 2 while the X-axis is the product of metformin concentration (micromolar) times the duration of the HT-29 cells to the drug (weeks).

## CN(C)C(=N)N=C(N)N [metformin]
HT-29, FIG. 1, five weeks
  concentration above which surviving large colonies are not immortal and do not contain metakaryotic stem cells: > 100 µM
HT-29, FIG. 3
  concentration x duration of exposure at which elimination of metakaryotic cell-containing immortal colonies is reached: ~200 micromolar-weeks
  concentration x duration of exposure below which killing of mortal colonies is not observed: about 2000 micromolar weeks
HT-29, at ~200 μM weeks
  survival fraction of the metformin-sensitive population (metakaryotic cells): 10^−2
HT-29, colonies five weeks after seeding, treated from day one for one, two or five weeks, concentration x duration treatments shown with green counts in FIG. 2
  total large colony numbers reduced to a level less than in untreated control flasks: about 10%
HT-29, five weeks exposure
  concentration at which surviving large colonies are not immortal and do not contain metakaryotic stem cells: 800 µM
HT-29, one week exposure
  concentration above which surviving large colonies are not immortal and do not contain metakaryotic stem cells: > 1600 µM
Extrapolated from FIG. 3, treatment of ~400 μM weeks
  expected survival of metakaryotic cells: 10^−4

## COC(=O)[C@H]1[C@H]2C[C@@H]3c4[nH]c5cc(OC)ccc5c4CCN3C[C@H]2C[C@@H](OC(=O)c2cc(OC)c(OC)c(OC)c2)[C@@H]1OC [reserpine]
Tests of some sixteen drugs, compared with metformin
  metakaryocidal effect (survival vs. concentration x duration function): no detectable effect as a metakaryocide
